Like-named read-outs stand apart in the source and are kept apart here.
Key:
[1] = Stopped-flow Quin-2 fluorescence, Ca^2+ dissociation from / binding to S100A4 constructs (no target)
From the text: In order to increase the signal-to-noise ratio of the Ca^2+ dissociation transients, we used Quin-2 as combined fluorescent indicator and high-affinity chelator.[19,20] These measurements confirmed that Ca^2+ dissociated from wild-type protein with a rate constant of 16 s^− 1 (Fig. 3a; cf. 20 s^− 1 for the tyrosine signal). Given the poor signal-to-noise ratio of the tyrosine signal, the difference is barely significant but may reflect the fact that the Quin-2 signal represents at least a two-step sequential reaction (Ca^2+ dissociation from S100AS4, followed by rapid binding to Quin-2).
Fig. 3 (a) Dissociation of Ca^2+ from wild-type S100A4 (black), E33Q mutant (blue), and D63N mutant (red), as monitored by Quin-2 fluorescence. […] The records for the mutants were vertically offset for clarity. (b) Ca^2+ binding to S100A4 as determined from the amplitude of the resolved transient (k ≈ 20 s^− 1) when 6.5 μM S100A4 was preincubated with various added [Ca^2+] and then mixed with 100 μM Quin-2. The amplitude was converted into a bound concentration from an independent calibration using the same Quin-2 solution and known free [Ca^2+]. […] While either model could account for the data, the measured stoichiometry from ITC (Table 1) favors the cooperative model.
Stopped-flow measurements were carried out using an SX18-MV apparatus (Applied Photophysics Ltd., Leatherhead, UK) with a dead time of 1.5 ms.[40] Records were generally captured on a logarithmic time base. Absorption (turbidity) measurements were usually recorded using a 10-mm pathlength, while fluorescence was recorded with a 2-mm pathlength for excitation and emission. The stated concentrations of components refer to the reaction chamber after mixing, unless otherwise indicated. Tyrosine fluorescence was excited at 280 nm, and the emission was collected through a UG11 bandpass filter plus a 305-nm longpass filter.[18] Fluorescein fluorescence was excited at 480 nm, and the emission was detected through a 515-nm longpass filter. Quin-2 fluorescence was measured by excitation at 336 nm, and emission was collected with a 455-nm longpass filter. For simultaneous recording of light scatter, a second channel was monitored through a UG11 filter. Rate constants were obtained by fitting to single-exponential or double-exponential functions using Kaleidagraph (Synergy Software) or Applied Photophysics Pro-Data software. Modeling of kinetic schemes was performed using Berkeley Madonna software.

[2] = cited from earlier work
From the text: Apart from the different methods used to study Ca^2+ binding, which have sensitivities over different concentration ranges, part of the variability in Kd values in the literature may arise from the self-association of S100A4. There is a general consensus[12,13,17,21,22] that S100A4 exists predominantly as a dimer at micromolar concentrations (indeed, this can lead to difficulties in interpreting literature values for stoichiometries quoted as ‘moles of Ca^2+ bound per mole of S100A4’ if the latter is not stated explicitly as being per monomer or per dimer). In the absence of Ca^2+, monomeric S ... || In the absence of added Ca^2+ (i.e., where the free “contaminant” [Ca^2+] in buffers would be of the order of 1 μM), mixing S100A4 with excess Quin-2 produced a small-amplitude signal (corresponding to 0.1 mol of Ca^2+ per mole of S100A4 monomer) with a rate constant of around 1 s^− 1.

M200 filaments = settings: cited from earlier work
From the text: Over the last two decades, there has been much interest in the role of the S100 Ca^2^+-binding protein family in the regulation of cellular events.[1,2] Identifying the specific targets of each of the 24 members[3] and deducing their mechanisms of action in vitro and in vivo remain to be a challenge. This is exemplified by S100A4 (also known as Mts1, metastasin, p9Ka, pEL98, calvasculin, and Fsp-1), which has been implicated in a wide range of cellular events and numerous diseases and binds to several different targets in vitro.[4–6] In particular, following early work,[7–9] there have been ma ... || A corresponding stoichiometry is also seen in the interaction of S100A4 with M200, where 2 mol of S100A4 monomer was required to solubilise 1 mol of M200 aggregate (when expressed as M200 polypeptide chain concentration) (Fig. 9b). […] These stoichiometries complicate the calculation of the equilibrium parameters for the models described in Schemes 1 and 2. If the binding sites remaine ...

M200 filamentous bundles = test: Electron microscopy of myosin IIA tail fragments; design: species or system human; settings: two times stoichiometric S100A4, Ca^2+, 0.1 M Na-acetate
Description: Fig. 8 Characterisation of myosin IIA coiled-coil tail fragments. Metal-shadowed electron micrographs of (a) M200 and (b) M111 deposited from 0.5 M ammonium acetate. Scale bar represents 50 nm. (c and d) Electron micrographs of a negatively stained M200 tail fragment. Fields of M200 (c) in the absence and (d) in the presence of a 2-fold molar excess of S100A4, respectively. Arrows point to individual strands emerging from images of filamentous bundles. The samples were prepared in 0.1 M sodium acetate buffer, where M200 formed large filamentous aggregates but were solubilised in the presence of S100A4. Scale bar represents 200 nm (see Materials and Methods for details).
For negative staining, the stock solution of the M200 tail fragment was diluted with a solution consisting of 0.1 M Na-acetate, 3 mM MgCl2, 0.1 mM CaCl2, 10 mM imidazole, and 5 mM NaH2PO4 (pH 7.0), with or without 14 μM S100A4, to give a final concentration of 7 μM M200. Following dilution, 5 μl of the mixture was applied to a grid with a thin carbon film supported by a holey carbon film, and the grid was negatively stained using 1% uranyl acetate. […] Images were recorded on a 2000 × 2000 F224HD slow-scan CCD camera (TVIPS, Gauting, Germany) at a magnification of 65,000× (0.37 nm pixel^− 1). The lengths of nonoverlapping well-shadowed molecules were measured as described by Burgess et al.[47]

S100A4: recombinant S100A4 expressed in E. coli BL21(DE3)
kobs, Ca^2+ dissociation, no target (k− 1) ([1]; 10 μM S100A4 + 50 μM Ca^2+ mixed with 100 μM Quin-2, pH 7.5, 20 °C): 17 s^− 1
Kd ([1]; model for Fig. 3b data, read-out: Kd, EF2 site (alternative model)): 5 µM
Kd ([1]; model for Fig. 3b data, read-out: Kd, first Ca^2+ at EF2 of dimer (cooperative model)): 100 µM
Kd ([1]; model for Fig. 3b data, read-out: Kd, second Ca^2+ at EF2 of dimer (cooperative model)): 1.7 µM
amplitude without added Ca^2+ ([1]; no added Ca^2+, excess Quin-2): 0.1 mol of Ca^2+ per mole of S100A4 monomer
rate constant without added Ca^2+ ([1]; no added Ca^2+, excess Quin-2): around 1 s^− 1
Kd ([1]; optically silent EF1 model for Fig. 3b data, read-out: Kd, EF1 site (alternative model)): 0.25 µM
Ca^2+ bound per monomer from calibrated Quin-2 amplitude ([1]; resolved signal, 6.5 μM S100A4, 100 μM Quin-2): one Ca^2+ bound per S100A4 monomer
Ca^2+ dissociation rate constant (Quin-2) ([1]; single exponential fit, no target): 16 s^− 1
rate constant of second slow phase of Ca^2+ dissociation ([1]; some preparations): 0.4–4 s^− 1
protein concentration at which monomer is detected ([2]; absence of Ca^2+): below 2 μM
concentration at which tetrameric and higher aggregates become significant ([2]; presence of Ca^2+): exceeding 20 μM
Ca^2+ affinity of tetramer relative to dimer ([2]; suggested by ultracentrifuge data): about 20 -fold
dissociation of rod filaments (M200 filaments; 20 mM NaCl): ineffective at dissociating rod filaments
S100A4 dimer required to disassemble 1 mol of NM-MHC IIA rods (M200 filaments; ref 11 (Li et al.)): 1 mol of S100A4 dimer
M200 filamentous bundles after S100A4 addition (M200 filamentous bundles): no trace of filamentous bundles was observed

— PMC3025356, “Mechanism of the Ca^2+-Dependent Interaction between S100A4 and Tail Fragments of Nonmuscle Myosin Heavy Chain IIA” (Journal of Molecular Biology, 2011)
